# Assay results from PMC4742234, “Screening of Drug Metabolizing Enzymes for the Ginsenoside Compound K In Vitro: An Efficient Anti-Cancer Substance Originating from Panax Ginseng” (PLoS ONE, 2016).
# Where “and” joins values, the source holds several entries; their conditions need not be identical. Identical values can stand only once. Entries after “also recorded” stand apart in the source; their conditions may differ.
# Experiments:
# [1] = biological target: T1, CYP2A6 (Homo sapiens, UniProt P11509); assay: Inhibition of CYP2A6 (coumarin 7-hydroxylation) by CK in HLMs; type: in vitro ADME
# T1 construct: tissue Cypex Ltd. (U.K.); host or cells: pooled human liver microsomes
# T1 sequence (P11509 1-494): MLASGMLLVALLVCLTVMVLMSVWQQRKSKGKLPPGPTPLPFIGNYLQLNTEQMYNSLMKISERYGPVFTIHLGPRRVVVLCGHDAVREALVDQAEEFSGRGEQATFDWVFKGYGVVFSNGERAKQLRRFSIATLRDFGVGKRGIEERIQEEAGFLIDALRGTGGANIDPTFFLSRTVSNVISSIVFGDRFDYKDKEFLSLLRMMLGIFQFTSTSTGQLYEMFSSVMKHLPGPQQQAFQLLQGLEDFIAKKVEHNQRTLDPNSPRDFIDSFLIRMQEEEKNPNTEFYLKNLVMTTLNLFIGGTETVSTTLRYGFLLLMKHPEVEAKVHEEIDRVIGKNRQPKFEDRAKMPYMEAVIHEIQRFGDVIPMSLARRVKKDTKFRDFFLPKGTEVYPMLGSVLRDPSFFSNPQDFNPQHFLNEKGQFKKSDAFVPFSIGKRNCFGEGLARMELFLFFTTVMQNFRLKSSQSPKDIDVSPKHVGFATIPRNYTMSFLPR
# Procedure: (§1) The method was conducted according to our previous study with some modifications. The CYP isoform-specific probe reactions used were phenacetin O-deethylation (for CYP1A2), coumarin 7-hydroxylation (for CYP2A6), tolbutamide 4-hydroxylation (for CYP2C9), metoprolol α-hydroxylation (for CYP2D6), chlorzoxazone 6-hydroxylation (for CYP2E1),S-Mephenytoin 4-hydroxylation (for CYP2C19), and midazolam 1-hydroxylation (for CYP3A4). The kinetic study of CK was conducted with HLMs. A 0.2 mL incubation mixture that consisted of CK (as a substrate), the HLMs (0.5 mg/mL) or CYP isoforms (10 pmol), and 0.1 M sodium phosphate buffer (pH 7.4) was pre-warmed for 5 min at 37°C. The reaction was initiated by the addition of 1 mg/mL triphosphopyridine nucleotide (NADPH). All the reagents were dissolved in methanol, and the final solvent concentration in all incubations (including the controls) was 1%. The final incubations were performed in a shaking water bath (37°C) for 30 min. The reactions were stopped by adding 0.2 mL ice-cold acetonitrile, which contains irbesartan (114.9 ng/mL) as the internal standard. The samples were vortexed for 5 min. After centrifugation (12000×g for 10 min), the supernatants were transferred, and aliquots of 20 μL were injected into the HPLC-MS/MS system for analysis.
# (§2) CK (10–100 μM) and a single CYP isoform-specific substrate (with a concentration similar to its corresponding Kmvalue) were used to determine the inhibitory effect of CK on specific CYP isoforms as described in detail previously. Substrates including phenacetin, coumarin, tolbutamide, metoprolol, chlorzoxazone, S-Mephenytoin, and midazolam were used at concentrations of 10, 5, 100, 7.5, 40, 100, and 5 μM, respectively. All incubation conditions were the same as mentioned above. The inhibitory effects on the CYP isoforms were investigated individually by incubating the HLMs in the absence or presence of CK. […]
# [2] = Plasma pharmacokinetics of CK in healthy volunteers; conditions: male, human, 800 mg
# Procedure: Note that in our other study carried out in healthy volunteers, 10 healthy male volunteers received administrations of 800 mg pure CK tablets (100mg/tablet, provided by Zhejiang Hisun Pharmaceutical Company Limited, China) swallowed by 150 mL water, then series venous blood samples of 5 mL were collected into EDTA-containing tubes at 0, 0.25, 0.5, 1, 1.5, 2, 2.5, 3, 3.5, 4, 5, 6, 8, 12, 24, 36, 48, 72 and 96h. The plasma samples were analyzed by HPLC-MS/MS, the peak plasma concentration (Cmax) and time to peak plasma concentration (Tmax) were directly obtained from the observed concentration-time data. The area under the plasma concentration-time curve (AUC) from time zero to last measured concentration (AUC(0−t)) was calculated according to the linear trapezoidal rule, the estimate of oral clearance(CL/F) was calculated as CL/F = Dose /AUC(0–t).
# [3] = biological target: CYP3A4 (Homo sapiens, UniProt P08684); assay: Effect of specific inhibitor ketoconazole on CK metabolism in HLMs; type: in vitro ADME; set-up: tissue Cypex Ltd. (U.K.); host or cells: pooled human liver microsomes; conditions: CK 50 μM, in the presence of ketoconazole 1 μM
# Chain of CYP3A4 (P08684 whole entry, canonical isoform): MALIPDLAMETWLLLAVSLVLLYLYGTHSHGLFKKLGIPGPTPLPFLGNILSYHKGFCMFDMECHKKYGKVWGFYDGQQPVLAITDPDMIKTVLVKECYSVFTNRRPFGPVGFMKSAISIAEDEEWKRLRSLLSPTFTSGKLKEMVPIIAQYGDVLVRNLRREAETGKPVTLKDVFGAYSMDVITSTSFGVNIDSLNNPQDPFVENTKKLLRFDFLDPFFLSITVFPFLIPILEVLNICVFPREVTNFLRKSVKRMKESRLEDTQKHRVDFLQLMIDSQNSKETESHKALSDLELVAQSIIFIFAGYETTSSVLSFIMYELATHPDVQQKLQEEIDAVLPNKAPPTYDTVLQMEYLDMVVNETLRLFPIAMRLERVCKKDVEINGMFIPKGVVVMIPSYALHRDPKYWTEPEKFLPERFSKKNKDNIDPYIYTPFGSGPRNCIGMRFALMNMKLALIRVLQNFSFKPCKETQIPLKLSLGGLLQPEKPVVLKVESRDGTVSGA
# Procedure: The method was conducted according to our previous study with some modifications. The CYP isoform-specific probe reactions used were phenacetin O-deethylation (for CYP1A2), coumarin 7-hydroxylation (for CYP2A6), tolbutamide 4-hydroxylation (for CYP2C9), metoprolol α-hydroxylation (for CYP2D6), chlorzoxazone 6-hydroxylation (for CYP2E1),S-Mephenytoin 4-hydroxylation (for CYP2C19), and midazolam 1-hydroxylation (for CYP3A4). The kinetic study of CK was conducted with HLMs. A 0.2 mL incubation mixture that consisted of CK (as a substrate), the HLMs (0.5 mg/mL) or CYP isoforms (10 pmol), and 0.1 M sodium phosphate buffer (pH 7.4) was pre-warmed for 5 min at 37°C. The reaction was initiated by the addition of 1 mg/mL triphosphopyridine nucleotide (NADPH). […]
# To screen the specific CYP isoform responsible for the CK metabolism, we determined the inhibitory effect of specific inhibitors on the metabolism of CK in the HLMs as described in detail previously. […] The inhibitory effects of the above specific inhibitors on the metabolic clearance rate of CK were evaluated separately to screen the CYP isoforms responsible for the CK metabolism. The relative activity of the CYP isoforms was calculated by dividing the peak area of CK when incubated with the inhibitor by that of CK from the negative controls. […]
# [4] = biological target: T2, CYP2C19 (Homo sapiens, UniProt P33261); assay: Inhibition of CYP2C19 (S-Mephenytoin 4-hydroxylation) by CK in HLMs; type: in vitro ADME
# T2 construct: tissue Cypex Ltd. (U.K.); host or cells: pooled human liver microsomes
# T2 sequence (P33261 whole entry): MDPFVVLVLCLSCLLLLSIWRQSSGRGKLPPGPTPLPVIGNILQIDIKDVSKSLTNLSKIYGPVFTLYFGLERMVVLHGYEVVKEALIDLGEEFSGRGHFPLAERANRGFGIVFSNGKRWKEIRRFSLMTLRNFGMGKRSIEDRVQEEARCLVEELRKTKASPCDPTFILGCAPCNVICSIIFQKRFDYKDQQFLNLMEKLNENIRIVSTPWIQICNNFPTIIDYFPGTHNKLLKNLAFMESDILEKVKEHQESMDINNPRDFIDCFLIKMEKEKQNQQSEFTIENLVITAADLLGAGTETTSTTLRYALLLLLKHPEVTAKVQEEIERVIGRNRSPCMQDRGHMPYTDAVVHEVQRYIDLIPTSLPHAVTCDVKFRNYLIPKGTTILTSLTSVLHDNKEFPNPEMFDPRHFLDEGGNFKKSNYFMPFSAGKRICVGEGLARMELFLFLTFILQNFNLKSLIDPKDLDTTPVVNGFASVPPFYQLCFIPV
# Procedure: as §1, §2
# [5] = classified by IC50 according to Kong et al
smiles,measurement,setting,value
"CC(C)=CCC[C@](C)(OC1O[C@H](CO)[C@@H](O)[C@H](O)[C@H]1O)[C@H]1CC[C@]2(C)[C@@H]1[C@H](O)C[C@@H]1[C@@]3(C)CC[C@H](O)C(C)(C)[C@@H]3CC[C@]12C (stereo partly drawn) [CK, 20-O-β-(D-glucopyranosyl)-20(S)-protopanaxadiol]",inhibitory effect on the activity of CYP2A6,"[1]; HLMs, CK 10–100 μM",minimal; also recorded: negligible
same,IC50,"[1]; HLMs, coumarin 5 μM, CK 10–100 μM",> 100 µM
same,inhibitor potency class for CYP2A6,[1]; [5],"weak (weak, if IC50≥100 μg/mL or ≥50 μM)"
same,Cmax,[2]; oral,~5 µM
same,Cmax,[2]; po,4.07 µM
same,"metabolic clearance rate (MCR) of CK, of that of the control",[3],74.6±28.1% and 74.6%
same,inhibitory effect on the activity of CYP2C19,"[4]; HLMs, CK 10–100 μM",minimal; also recorded: negligible
same,IC50,"[4]; HLMs, S-Mephenytoin 100 μM, CK 10–100 μM",> 100 µM
same,inhibitor potency class for CYP2C19,[4]; [5],"weak (weak, if IC50≥100 μg/mL or ≥50 μM)"
